Experimental data reported in ChEMBL document CHEMBL5661974, “Pharmacologic characterization of a potent inhibitor of class I phosphatidylinositide 3-kinases” (Cancer Res, 2007).
Calls of active or inactive are those of the source. The rule behind the calls is not given here.

Legend:
HCT-116 [1] = experiment: Inhibition of recombinant PI3K in human HCT-116 cells assessed as increase in cleavage of PARP at 5 times of GI50 concentration incubated for 24 hrs by immunoblot analysis; format: cell-based
HCT-116 [2] = experiment: Antiproliferative activity against human HCT-116 cells harboring PI3KCA mutant assessed as cell growth inhibition incubated for 96 hrs by SRB assay; format: functional
MDA-MB-468 = experiment: Antiproliferative activity against human MDA-MB-468 cells harboring PTEN deletion assessed as cell growth inhibition incubated for 96 hrs by SRB assay; format: functional
U-87 MG [3] = experiment: Antiproliferative activity against human U-87MG cells harboring PTEN deletion assessed as cell growth inhibition incubated for 96 hrs by SRB assay; format: functional, U-87MG ATCC
MDA-MB-435 = experiment: Antiproliferative activity against human MDA-MB-435 cells harboring AKT assessed as cell growth inhibition incubated for 96 hrs by SRB assay; format: functional
A2780 = experiment: Antiproliferative activity against human A2780 cells harboring PI3KCA/PTEN mutant assessed as cell growth inhibition incubated for 96 hrs by SRB assay; format: functional
U-87 MG [4] = details: Homo sapiens, time 24.0 hrs
A549 = experiment: Antiproliferative activity against human A549 cells harboring AKT assessed as cell growth inhibition incubated for 96 hrs by SRB assay; format: functional
HCT-116 [5] = experiment: Inhibition of recombinant PI3K in human HCT-116 cells assessed as increase in cleavage of PARP at 10 times of GI50 concentration incubated for 24 hrs by immunoblot analysis; format: cell-based
PC-3 = experiment: Antiproliferative activity against human PC-3 cells harboring PTEN deletion assessed as cell growth inhibition incubated for 96 hrs by SRB assay; format: functional
IGROV-1 = experiment: Antiproliferative activity against human IGROV-1 cells harboring PI3KCA/PTEN mutant assessed as cell growth inhibition incubated for 96 hrs by SRB assay; format: functional
Detroit 562 = experiment: Antiproliferative activity against human Detroit 562 cells harboring PI3KCA mutant assessed as cell growth inhibition incubated for 96 hrs by SRB assay; format: functional
U-87 MG [6] = details: Homo sapiens, time 24.0 hrs; remark: listed apart in the source

## O=c1cc(N2CCOCC2)oc2c(-c3ccccc3)cccc12 [LY-294002]
HCT-116 [1]
  inhibition: Active
HCT-116 [2]
  GI50: 10.5 µM
MDA-MB-468
  GI50: 6.5 µM
U-87 MG [3]
  GI50: 9.8 µM
MDA-MB-435
  GI50: 15.3 µM
A2780
  GI50: 5.58 µM
U-87 MG [4]
  inhibition: Active
A549
  GI50: 9 µM
HCT-116 [5]
  inhibition: Active
PC-3
  GI50: 4.6 µM
IGROV-1
  GI50: 5.5 µM
Detroit 562
  GI50: 12.1 µM
U-87 MG [6]
  inhibition: Active
